Test results reported in paper PMC6882436 (Journal of Extracellular Vesicles, 2019).

Biological target: T1, eGFP-CD82 (KAI1/CD82) (Homo sapiens, UniProt P27701)
T1 sequence (P27701 1-267): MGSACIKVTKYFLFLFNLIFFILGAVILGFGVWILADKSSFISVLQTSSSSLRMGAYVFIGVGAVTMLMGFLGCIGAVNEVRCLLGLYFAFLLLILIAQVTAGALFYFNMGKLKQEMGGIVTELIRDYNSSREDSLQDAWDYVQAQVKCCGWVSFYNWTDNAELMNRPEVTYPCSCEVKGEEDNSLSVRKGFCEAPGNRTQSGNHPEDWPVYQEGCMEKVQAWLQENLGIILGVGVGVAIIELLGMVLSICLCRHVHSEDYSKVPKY
Test: microscale thermophoresis, eGFP fluorescence, cell lysate
Format: binding

Kd: 5.89 µM
Compound: CC(C)CCC[C@@H](C)[C@H]1CC[C@H]2[C@@H]3CC=C4C[C@@H](O)CC[C@]4(C)[C@H]3CC[C@]12C [cholesterol]
